Assay results reported in patent US8461186B2, “Use of N-piperidine derivatives for the treatment of neurodegenerative pathologies” (Medestea Research & Production S.p.A., priority 2004, dated 2013).
Read-outs that look alike come from different tables or passages of the source.

How the values were obtained:
[1] = tested on: myocardial ischaemia and reperfusion (I/R) in the rat; assay: Myocardial lesion due to ischaemia and reperfusion (LAD occlusion): size of the infarct; type: in vivo; conditions: 10 mg/kg bolus 5 minutes prior to reperfusion, then 2 mg/kg/h; LAD occlusion 25 minutes, reperfusion 2 hours; p<0.01 (FIG. 1)
Procedure: The in vivo model of myocardial lesion due to ischaemia and reperfusion was selected as the most suitable for checking the efficacy of the compounds MP1002 and MP1001 according to the invention.
Male Sprague Dawley rats (220-230 g) were kept on a standard laboratory diet supplemented with “Nossan Pellets” (Nossan Company, Milan, Italy) and were housed for three weeks prior to the tests (relative humidity 50%±10, temperature 22° C.±1 and light/darkness cycle of 12/12 hours with first light at 7.30 a.m.); food and water were available ad libitum.
The rats (twenty per group) were anaesthetized by intraperitoneal injection of chloral hydrate (380 mg/kg) and were then tracheotomized, intubated and ventilated with ambient air by a suitable ventilator; body temperature was kept at 38° C.±1 and the right carotid artery was cannulated and connected to a pressure transducer to monitor the mean arterial blood pressure (MAP). […]
The coronary artery was occluded by tightening the occluder, a procedure which is correlated with the electrocardiographic and haemodynamic changes (drop in MAP) which are typical of myocardial ischaemia. […] The heart rate (HR) and MAP were monitored continuously. […]

[2] = tested on: lipid peroxidation in the Substantia Nigra; type: in vivo; conditions: for Lipid Peroxidation: Substantia Nigra, 24 hours
Procedure: Microinfusion of 50 μg of Paraquat into the Substantia Nigra (n=20 rats) led to an increase in motor activity with the animals performing jumps and moving in circles in a contralateral direction relative to the injection position, about 24 minutes later; all of the animals were dead 24±2.5 hours after infusion. […]
[…]. Enzymol. 52, 302-310, 1978.

[3] = tested on: mean arterial blood pressure (MAP) and heart rate (HR) in the rat; assay: Mean arterial blood pressure (MAP) and heart rate (HR) in myocardial ischaemia and reperfusion; type: in vivo; conditions: for HR: in beats/min (unit assumed); for MAP: in mmHg (unit assumed)
Procedure: The rats (twenty per group) were anaesthetized by intraperitoneal injection of chloral hydrate (380 mg/kg) and were then tracheotomized, intubated and ventilated with ambient air by a suitable ventilator; body temperature was kept at 38° C.±1 and the right carotid artery was cannulated and connected to a pressure transducer to monitor the mean arterial blood pressure (MAP).
The coronary artery was occluded by tightening the occluder, a procedure which is correlated with the electrocardiographic and haemodynamic changes (drop in MAP) which are typical of myocardial ischaemia. After 25 minutes of myocardial ischaemia, the occluder was reopened, permitting reperfusion for 2 hours. The heart rate (HR) and MAP were monitored continuously.
The following test groups were considered: a) LAD occlusion (25 minutes) and reperfusion (2 hours) plus administration of the vehicle (saline solution, 3 ml/kg-v-bolus plus 1.8 ml/kg/h) starting 5 minutes after reperfusion and maintained during the reperfusion period; b) LAD occlusion and reperfusion plus administration of MP1002 or MP1001 (10 mg/kg injection in bolus) 5 minutes prior to reperfusion, followed by infusion of 2 mg/kg/h during the reperfusion period; c) sham operation (no LAD occlusion) and infusion of the vehicle; d) sham operation and infusion of MP1002 or MP1001 as described above.
The base haemodynamic results were similar in the various groups considered.

[4] = tested on: rats receiving Paraquat into Substantia Nigra; type: in vivo, rat
Description: The Paraquat/rat/PS experimental model was therefore selected as the most indicative for checking the efficacy of chemical compounds according to the present invention; of these, two anti-oxidants designated MP1002 and MP1001 were used in the tests:
Male Sprague Dawley rats (210-220 g weight) were kept on a standard laboratory diet supplemented with “Nossan Pellets” (both the animals and the pellets are available from Nossan Company, Milan, Italy) and were housed for three weeks (relative humidity 50%±10%, temperature 22° C.±1 and in a light/darkness cycle of 12 hours/12 hours, with first light at 7.30 a.m.) prior to the tests; food and water were available ad libitum.
Prior to treatment, the rats were anaesthetized by intraperitoneal injection of 380 mg/kg weight of chloral hydrate; a stainless steel guide cannula (size 25) was implanted unilaterally in the Substantia Nigra with stereotaxic guiding and was secured to the cranium with dental acrylic material.
The animals (20 per test group) were allowed a recovery period of seven days prior to treatment; during this period no change in motor activity or posture was observed. Microinfusions were performed by means of a 10 μl Hamilton syringe connected to an injection cannula by means of a Teflon tube. The compounds or the vehicle (0.8% NaCl) were injected at a total volume of 1 μl/minute.
Microinfusion of 50 μg of Paraquat into the Substantia Nigra (n=20 rats) led to an increase in motor activity with the animals performing jumps and moving in circles in a contralateral direction relative to the injection position, about 24 minutes later; all of the animals were dead 24±2.5 hours after infusion. A further twenty animals were infused with Paraquat and twenty with Paraquat plus vehicle; about ten of the animals for each group survived 20 hours after treatment and were used to determine the development of lipid peroxidation in the Substantia Nigra.

[5] = 50 μg paraquat by microinfusion, 5 minutes later 100 mg/kg b.w. intraperitoneal
[6] = simultaneously 50 μg paraquat by microinfusion and 120 mg/kg b.w. intraperitoneal
[7] = Sham operation, Occlusion 15 min
[8] = Sham operation, Occlusion 25 min
[9] = Sham operation, Reperfusion 15 min
[10] = Sham operation, Reperfusion 25 min
[11] = Paraquat (50 μg) microinfused simultaneously with 1 μg compound
[12] = pretreated intraperitoneally 120 mg/kg b.w., after 5 minutes paraquat (50 μg) by microinfusion
[13] = simultaneous microinfusion into Substantia Nigra of paraquat (50 μg) with 1 μg compound

## CC1(C)CC(OC(=O)CCCCCCCCC(=O)OC2CC(C)(C)N(O)C(C)(C)C2)CC(C)(C)N1O [MP1001, BIS(1-HYDROXYL-2,2,6,6-TETRAMETHYL-4-PIPERIDINYL)DECANDIOATE]
[1]
  reduction in the size of the infarct compared with the control: 78%
[2]; [5]
  Lipid Peroxidation: 4.8 ± 0.57 nmol MDA × h^−1 × mg prot^−1
[2]; pretreated intraperitoneally 120 mg/kg b.w., after 5 minutes paraquat (50 μg)
  Lipid Peroxidation: 4.7 ± 0.49 nmol MDA × h^−1 × mg prot^−1
[2]; simultaneous microinfusion of paraquat (50 μg) with 1 μg compound
  Lipid Peroxidation: 5.4 ± 0.84 nmol MDA × h^−1 × mg prot^−1
[2]; [6]
  Lipid Peroxidation: 5.1 ± 0.94 nmol MDA × h^−1 × mg prot^−1
[2]; treatment before, with, or after infusion with Paraquat, p<0.01
  lipid peroxidation in the Substantia Nigra: markedly and significantly (p<0.01) reduced lipid peroxidation
[3]; I/R, Baseline
  HR: 435 ± 25
  MAP: 125 ± 9
[3]; I/R, Occlusion 15 min
  HR: 438 ± 31
  MAP: 118 ± 12
[3]; I/R, Occlusion 25 min
  HR: 430 ± 28
  MAP: 111 ± 13
[3]; I/R, Reperfusion 15 min
  HR: 425 ± 28
  MAP: 100 ± 10
[3]; I/R, Reperfusion 25 min
  HR: 427 ± 26
  MAP: 95 ± 8
[3]; Sham operation, Baseline
  HR: 422 ± 33
  MAP: 127 ± 16
[3]; [7]
  HR: 422 ± 26
  MAP: 125 ± 13
[3]; [8]
  HR: 424 ± 48
  MAP: 121 ± 11
[3]; [9]
  HR: 427 ± 27
  MAP: 112 ± 8
[3]; [10]
  HR: 427 ± 23
  MAP: 107 ± 16
[3]; rats subjected to I/R
  mean MAP and HR values versus the I/R group treated with the vehicle alone: not significantly different
[3]; sham operations (no LAD occlusion)
  haemodynamic effects of infusion: no substantial haemodynamic effects
[4]; [5]
  Duration (seizures): No seizures and epileptic discharges
  Latency (seizures): No seizures and epileptic discharges
  Mortality: 0%
[4]; 120 mg/kg intraperitoneally 5 minutes prior to, simultaneously with, or 5 minutes after 50 μg Paraquat
  deaths of rats: none of the rats died
[4]; [11]
  signs of alterations during continuous monitoring: no signs of alterations were observed
  survival for a further 24 hours: all of the animals survived
[4]; concluded from protection after intraperitoneal administration
  capacity to cross the blood-brain barrier (BBB): cross the blood-brain barrier
[4]; intracerebral and peripheral administration
  protection against the behavioural and neuropathological effects induced by Paraquat: protected completely
[4]; [12]
  Duration (seizures): No seizures and epileptic discharges
  Latency (seizures): No seizures and epileptic discharges
  Mortality: 0%
[4]; [13]
  Duration (seizures): No seizures and epileptic discharges
  Latency (seizures): No seizures and epileptic discharges
  Mortality: 0%
[4]; [6]
  Duration (seizures): No seizures and epileptic discharges
  Latency (seizures): No seizures and epileptic discharges
  Mortality: 0%
